Experimental data: US20190161499A1, “PESTICIDALLY ACTIVE 1,2,4-TRIAZOLE DERIVATIVES” (SYNGENTA PARTICIPATIONS AG, priority 2015, published 2019)

Legend:
Type in all cases: in vivo
[1] = system: Spodoptera littoralis (Egyptian Cotton Leaf Worm); experiment: Comparison: insecticidal activity against Spodoptera littoralis; conditions: 72 h, 3 days after infestation
Experimental: (§1) Compound B is disclosed in WO2013/063282 as an example on page 114 (Table 4, M is CH(Me), Rx=2-F, Ry=4-Cl) and compound C is disclosed in WO 2013/173218 as example on page 123 (Table 14, M is CH(Me), R4a=2-F, R4b=4-Cl). The activities of compounds B and C to treat different pests are compared with the activities of compound A according to the present invention. The tests are carried out at different concentrations (ppm).
a) Insecticidal Activity Against Spodoptera littoralis (Egyptian Cotton Leaf Worm)
Cotton leaf discs were placed onto agar in 24-well microtiter plates and sprayed with aqueous test solutions prepared from 10,000 ppm DMSO stock solutions. After drying the leaf discs were infested with five L1 larvae. The samples were assessed for mortality 3 days after infestation.

[2] = system: Plutella xylostella (Diamond Back Moth); experiment: Comparison: insecticidal activity against Plutella xylostella; conditions: 120 h, 5 days after infestation
Experimental: as §1
b) Insecticidal Activity Against Plutella xylostella (Diamond Back Moth):
(§2) 24-well microtiter plates with artificial diet were treated with aqueous test solutions prepared from 10,000 ppm DMSO stock solutions by pipetting. After drying, the plates were infested with L2 larvae (10 to 15 per well). The samples were assessed for mortality and growth inhibition in comparison to untreated samples 5 days after infestation.

[3] = system: Diabrotica Balteata (Corn Root Worm); experiment: Comparison: insecticidal activity against Diabrotica balteata; conditions: 96 h, 4 days after infestation
Experimental: as §1
c) Insecticidal Activity Against Diabrotica Balteata (Corn Root Worm):
as §2, with “Maize sprouts, placed on an agar layer in 24-well” for “24-well”, “plates” for “plates with artificial diet”, “spraying.” for “pipetting.”, “(6” for “(10”, “10” for “15”, “4” for “5”

[4] = system: Spodoptera littoralis (Egyptian Cotton Leaf Worm); experiment: Spodoptera littoralis cotton leaf disc spray test; conditions: foliar, 72 h, application rate 200 ppm, L1 larvae, 3 days after infestation, read-out: control (at least one of mortality, anti-feedant effect, growth inhibition)
Experimental: Spodoptera littoralis (Egyptian Cotton Leaf Worm)
Cotton leaf discs were placed on agar in 24-well microtiter plates and sprayed with aqueous test solutions prepared from 10,000 ppm DMSO stock solutions. After drying, the leaf discs were infested with five L1 larvae. The samples were assessed for mortality, anti-feedant effect, and growth inhibition in comparison to untreated samples 3 days after infestation. Control of Spodoptera littoralis by a test sample is when at least one of mortality, anti-feedant effect, and growth inhibition is higher than the untreated sample.

[5] = system: Plutella xylostella (Diamond Back Moth); experiment: whole plant or invertebrate; conditions: 120 h, application rate 200 ppm, L2 larvae, 5 days after infestation, read-out: effect in at least one of the two categories (mortality or growth inhibition)
Experimental: Example B2: Plutella xylostella (Diamond Back Moth)
as §2

[6] = system: Diabrotica Balteata (Corn Root Worm); experiment: whole plant or invertebrate; conditions: 96 h, application rate 200 ppm, L2 larvae, 4 days after infestation, read-out: effect in at least one of the two categories (mortality or growth inhibition)
Experimental: Example B3: Diabrotica Balteata (Corn Root Worm)
as §2, with “Maize sprouts, placed on an agar layer in 24-well” for “24-well”, “plates” for “plates with artificial diet”, “spraying.” for “pipetting.”, “(6” for “(10”, “10” for “15”, “4” for “5”

Row | SMILES | mortality at 12.5 ppm [1] [%] | mortality at 50 ppm [1] [%] | mortality at 200 ppm [1] [%] | mortality at 12.5 ppm [2] [%] | mortality at 50 ppm [2] [%] | mortality at 200 ppm [2] [%] | mortality at 12.5 ppm [3] [%] | mortality at 50 ppm [3] [%] | mortality at 200 ppm [3] [%] | percent control (mortality, anti-feedant effect or growth inhibition) at 200 ppm [4] [%] | percent effect (mortality or growth inhibition) at 200 ppm [5] [%] | percent effect (mortality or growth inhibition) at 200 ppm [6] [%]
1 | CC1CCN(Cc2nc(-c3ccc(Cl)cc3)nn2-c2ccccc2F)CC1 [A] | 100 | 100 | 100 | 50 | 100 | 100 | 100 | 100 | 100 |  |  | 
2 | CC1CCN(Cc2cn(-c3ccc(Cl)cc3)nc2-c2ccccc2F)CC1 [Compound B] | 0 | 0 | 100 | 0 | 0 | 0 | 0 | 100 | 100 |  |  | 
3 | CC1CCN(Cc2nn(-c3ccc(Cl)cc3)nc2-c2ccccc2F)CC1 [Compound C] | 0 | 0 | 50 | 0 | 0 | 0 | 0 | 100 | 100 |  |  | 
4 | Fc1ccccc1-n1nc(-c2ccc(Cl)c(Cl)c2)nc1CN1CCC(c2ncccn2)CC1 [Example 1.20] |  |  |  |  |  |  |  |  |  | ≥ 80 | ≥ 80 | ≥ 80
5 | Fc1cccc(F)c1-n1nc(-c2ccc(C(F)(F)F)cc2)nc1CN1CCC(c2ncccn2)CC1 [Example 1.21] |  |  |  |  |  |  |  |  |  | ≥ 80 | ≥ 80 | ≥ 80
6 | Fc1ccccc1-n1nc(-c2ccc(C(F)(F)F)cc2)nc1CN1CCC(c2ncccn2)CC1 [Example 1.26] |  |  |  |  |  |  |  |  |  | ≥ 80 | ≥ 80 | ≥ 80
7 | Fc1ccc(-c2nc(CN3CCC(c4ncccn4)CC3)n(-c3ccc(F)cc3)n2)cc1 [Example 1.29] |  |  |  |  |  |  |  |  |  | ≥ 80 | ≥ 80 | ≥ 80
8 | Fc1ccc(-n2nc(-c3ccc(Cl)cc3)nc2CN2CCC(c3ncccn3)CC2)c(F)c1 [Example 1.30] |  |  |  |  |  |  |  |  |  | ≥ 80 | ≥ 80 | ≥ 80
9 | CC1(C)CCN(Cc2nc(-c3ccc(Cl)cc3)nn2-c2ccccc2F)CC1 [Example 1.35] |  |  |  |  |  |  |  |  |  | ≥ 80 | ≥ 80 | ≥ 80
10 | Fc1ccccc1-n1nc(-c2cccc(C(F)(F)F)c2)nc1CN1CCC(c2ncccn2)CC1 [Example 1.38] |  |  |  |  |  |  |  |  |  | ≥ 80 | ≥ 80 | ≥ 80
11 | Fc1ccccc1-n1nc(-c2ccc(Cl)cc2)nc1CN1CCC(c2ccccc2)CC1 [Example 1.43] |  |  |  |  |  |  |  |  |  | ≥ 80 | ≥ 80 | ≥ 80
12 | CC1CCN(Cc2nc(-c3ccc(Cl)cc3)nn2-c2ccccc2F)CC1 [Example 1.46] |  |  |  |  |  |  |  |  |  | ≥ 80 | ≥ 80 | ≥ 80
13 | Clc1ccc(-c2nc(CN3CCC(c4ncccn4)CC3)n(-c3cccc(Cl)c3Cl)n2)cc1 [Example 1.55] |  |  |  |  |  |  |  |  |  | ≥ 80 | ≥ 80 | ≥ 80
14 | Clc1ccc(-c2nc(CN3CCC(c4ncccn4)CC3)n(Cc3ccccc3)n2)cc1 [Example 1.56] |  |  |  |  |  |  |  |  |  | ≥ 80 | ≥ 80 | ≥ 80
15 | Clc1ccc(-c2nc(CN3CCC(c4ncccn4)CC3)n(-c3ccccc3)n2)cc1 [Example 1.61] |  |  |  |  |  |  |  |  |  | ≥ 80 | ≥ 80 | ≥ 80
